Laboratory results as given in article PMC5515969, “Effects of 31 FDA approved small-molecule kinase inhibitors on isolated rat liver mitochondria” (Archives of Toxicology, 2016).

How the values were obtained:
[1] = cited from earlier work; for DILI potential (based on labeling): ref FDA product labeling
[2] = system: RCC III; assay: RCC III activity in submitochondrial particles; assay type: biochemical, rat; conditions: 15 min, DMSO-treated = 100
Method in brief: (§1)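 Rat submitochondrial particles (1 mg/ml) were treated with test compounds for 15 min. RCC IV, like RCC III, was monitored at 550 nm every 10 s for 2 min, and RCC I/V at 340 nm each minute for 6 min. DMSO samples defined unit activity.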

[3] = human therapeutic Cmax at FDA recommended dosages; ref product labeling and drug approval packages at the official FDA website; cited from earlier work
[4] = system: RCC I–V; assay: Activities of RCC I–V, overall statements; assay type: biochemical, rat; conditions: submitochondrial particles
Description: KIs were incubated with submitochondrial particles (1 mg/ml) for 15 min and then RCC I–V activities measured. […] The activities of DMSO-treated samples (controls) were set as 1. […] The difference between the activity from rotenone-containing buffer and rotenone-absent buffer was considered as RCC I activity. […] For measuring RCC I/V and II activity, the changes in absorbance at 340 and 600 nm, respectively, were determined every 1 min for 6 min. For measuring RCC III and RCC IV, the changes in absorbance at 550 nm were measured every 10 s for 2 min.

[5] = system: RCC V; assay: RCC V activity in submitochondrial particles; assay type: biochemical, rat; conditions: 15 min, DMSO-treated = 100
Method in brief: as §1

[6] = system: RCC IV; assay: RCC IV activity in submitochondrial particles; assay type: biochemical, rat; conditions: 15 min, DMSO-treated = 100
Method in brief: as §1

[7] = system: RCC I; assay: RCC I activity in submitochondrial particles; assay type: biochemical, rat; conditions: 15 min, DMSO-treated = 100
Method in brief: as §1

[8] = system: isolated rat liver mitochondria; assay: Mitochondrial swelling (absorbance at 535 nm); assay type: biochemical
[9] = system: isolated rat liver mitochondria; assay: Mitochondrial toxicity, any endpoint, intact mitochondria and submitochondrial particles; assay type: biochemical; conditions: any endpoint
Description: Rats were anesthetized by an intraperitoneal injection of Nembutal and the liver perfused with PBS to remove the blood. The liver was then cut into small pieces and homogenized using a Dounce type homogenizer in the ice-cold isolation buffer (IB) containing 200 mM sucrose, 10 mM Tris-MOPS, 1 mM EGTA (pH 7.4). The sample was then centrifuged at 600g for 10 min. The supernatant was further centrifuged at 7500g for 10 min, and the pellets was washed once with the IB and centrifuged again at 7500g for 10 min to collect mitochondria. […] Before drug treatment, the protein concentration was adjusted to 1 mg/ml using appropriate buffer. […] Briefly, mitochondrial and cytosolic fractions from four different preparations using four rats were diluted using the Laemmli protein loading buffer and subject to SDS-PAGE with 4–20% gradient gels. The proteins were blotted to PVDF membranes and detected using antibodies against GAPDH, ATP5A, UQCRC2, SDHB, and NDUFB8.
The aliquoted stock solutions were kept for less than one month and each tube was used only once. The KIs were added to the mitochondria at 1:1000 dilutions. […] The Cmax data were from clinical trials which used FDA recommend dosages, route of administration, and duration. […] The final concentration of DMSO for drug treatment was always 0.1%, and control treatments were 0.1% DMSO.

[10] = system: isolated rat liver mitochondria; assay: Mitochondrial inner membrane potential (MMP), Rhodamine 123; assay type: biochemical
Excerpt: Fig. 3 KI effects on mitochondrial inner membrane potential (MMP). […] In a, c, data are means and standard derivations from three separate experiments. *p < 0.05 as compared to DMSO-treated samples at the end of experiments. In b, data are means of two independent experiments

[11] = system: isolated rat liver mitochondria; assay: Mitochondrial oxygen consumption (glutamate/malate or succinate driven, state 4 and state 3); assay type: biochemical
Method in brief: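 Oxygen uptake on glutamate/malate or on succinate defined state 4; ADP added 3 min later gave state 3. Mitochondria isolated from rat liver by differential centrifugation, adjusted to 1 mg/ml and pretreated 5 min with inhibitor (0.1% DMSO final). Values relative to DMSO control, set to 1.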

[12] = up to 100-fold Cmax or highest testable concentration
[13] = 10-fold Cmax, oxygen consumption, DMSO-treated = 1
[14] = 20-fold Cmax, oxygen consumption, DMSO-treated = 1
[15] = 30-fold Cmax, oxygen consumption, DMSO-treated = 1

## C#Cc1cccc(Nc2ncnc3cc(OCCOC)c(OCCOC)cc23)c1 [Erlotinib]
[1]; in vivo
  labeling for DILI: W&P: fatal DILI
[1]
  DILI potential (based on labeling): 1
[2]; 10-fold Cmax
  RCC activity III: 103.11 ± 12.25 % of control
[3]
  Cmax: 3.44 µM
[4]
  lowest concentration inhibiting RCCs: 10 fold Cmax
[5]; 10-fold Cmax
  RCC activity V: 83.52 ± 2.96 % of control
[6]; 10-fold Cmax
  RCC activity IV: 98.77 ± 4.53 % of control
[7]; 10-fold Cmax
  RCC activity I: 90.62 ± 2.87 % of control

## COc1cc2nccc(Oc3ccc(NC(=O)C4(C(=O)Nc5ccc(F)cc5)CC4)cc3)c2cc1OC [Cabozantinib]
[8]
  lowest concentration causing mitochondrial swelling: 20 fold Cmax
[8]; up to 100-fold Cmax or highest testable concentration, 25 µM calcium chloride
  effect on mitochondrial swelling: significant mitochondrial swelling
[1]
  DILI potential (based on labeling): 0
[2]; 30-fold Cmax
  RCC activity III: 90.73 ± 14.60 % of control
[3]
  Cmax: 2.58 µM
[4]; [12]
  RCCs inhibited: both RCC I and RCC II
[9]
  lowest concentration causing significant mitochondrial toxicity: 10 fold Cmax
[5]; 30-fold Cmax
  RCC activity V: 91.99 ± 8.51 % of control
[10]
  lowest concentration decreasing MMP: tenfold
[10]; [12]
  effect on MMP: decrease in MMP
[6]; 30-fold Cmax
  RCC activity IV: 113.10 ± 9.48 % of control
[11]; [13]
  Glutamate/malate driven respiration State 4: 1.46 ± 0.08
  Succinate-driven respiration State 3: 1.03 ± 0.01
  Succinate-driven respiration State 4: 1.23 ± 0.11
[11]; [14]
  Glutamate/malate driven respiration State 3: 0.92 ± 0.05
  Glutamate/malate driven respiration State 4: 1.30 ± 0.15
  Succinate-driven respiration State 3: 0.94 ± 0.06
  Succinate-driven respiration State 4: 1.24 ± 0.05
[11]; [15]
  Glutamate/malate driven respiration State 4: 1.55 ± 0.06
  Succinate-driven respiration State 3: 0.95 ± 0.05
  Succinate-driven respiration State 4: 1.35 ± 0.18
[11]; highest tested concentrations
  effect on state 4 respiration: significant increases
[11]; tested at 1 to 100-fold Cmax
  lowest concentration significantly affecting mitochondrial oxygen consumption: tenfold
[7]; 30-fold Cmax
  RCC activity I: 80.97 ± 2.99 % of control
